Source: patent publication US9326506B2, “Preparation method, agricultural composition and applications of natural brassinolide analogs” (CHENGDU NEWSUN CROPSCIENCE CO., LTD, priority 2012, dated 2016)

Tested on: rice
Experiment: Low temperature assay on rice seedlings
Type: in vivo
Outline: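 Nine-day-old etiolated rice seedlings (grown on water at 30 °C±2 °C, dark) immersed in brassinolide analogues at 1–0.0001 mg/L or pure water, held at 1–5 °C for 24 hr. Plant height, leaf area, root weight read at 3, 6, 9, 12 days; leaf and tiller number at 12 days.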

SMILES: CC[C@@H](C(C)C)[C@@H](O)[C@H](O)[C@@H](C)[C@H]1CCC2C3COC(=O)C4C[C@H](O)[C@H](O)C[C@]4(C)C3CC[C@@]21C (stereo partly shown) [BR2]
- Height (0.01 mg/l, 3 °C, 9 days): 7.7 cm
- Weight of root (0.01 mg/l, 3 °C, 9 days): 2.9 g
- Area of leaf (0.01 mg/l, 3 °C, 12 days): 13.2 cm^2
- Height (0.01 mg/l, 3 °C, 12 days): 7.9 cm
- Number of leaf (0.01 mg/l, 3 °C, 12 days): 3
- Number of tiller (0.01 mg/l, 3 °C, 12 days): 2
- Weight of root (0.01 mg/l, 3 °C, 12 days): 2.9 g
- Area of leaf (0.01 mg/l, 4 °C, 3 days): 10.8 cm^2
- Height (0.01 mg/l, 4 °C, 3 days): 7.1 cm
- Weight of root (0.01 mg/l, 4 °C, 3 days): 2.5 g
- Area of leaf (0.01 mg/l, 4 °C, 6 days): 12.4 cm^2
- Height (0.01 mg/l, 4 °C, 6 days): 7.5 cm
- Weight of root (0.01 mg/l, 4 °C, 6 days): 2.6 g
- Area of leaf (0.01 mg/l, 4 °C, 9 days): 13.2 cm^2
- Height (0.01 mg/l, 4 °C, 9 days): 7.7 cm
- Weight of root (0.01 mg/l, 4 °C, 9 days): 2.9 g
- Area of leaf (0.01 mg/l, 4 °C, 12 days): 13.5 cm^2
- Height (0.01 mg/l, 4 °C, 12 days): 7.8 cm
- Number of leaf (0.01 mg/l, 4 °C, 12 days): 3
- Number of tiller (0.01 mg/l, 4 °C, 12 days): 2
- Weight of root (0.01 mg/l, 4 °C, 12 days): 3.0 g
- Area of leaf (0.01 mg/l, 5 °C, 3 days): 10.3 cm^2
- Height (0.01 mg/l, 5 °C, 3 days): 7.4 cm
- Weight of root (0.01 mg/l, 5 °C, 3 days): 2.8 g
- Area of leaf (0.01 mg/l, 5 °C, 6 days): 13.1 cm^2
- Height (0.01 mg/l, 5 °C, 6 days): 7.6 cm
- Weight of root (0.01 mg/l, 5 °C, 6 days): 3.0 g
- Area of leaf (0.01 mg/l, 5 °C, 9 days): 16.4 cm^2
- Height (0.01 mg/l, 5 °C, 9 days): 8 cm
- Weight of root (0.01 mg/l, 5 °C, 9 days): 3.4 g
- Area of leaf (0.01 mg/l, 5 °C, 12 days): 17 cm^2
- Height (0.01 mg/l, 5 °C, 12 days): 8.2 cm
- Number of leaf (0.01 mg/l, 5 °C, 12 days): 4
- Number of tiller (0.01 mg/l, 5 °C, 12 days): 3
- Weight of root (0.01 mg/l, 5 °C, 12 days): 3.9 g
- Area of leaf (0.1 mg/l, 1 °C, 3 days): 10.1 cm^2
- Height (0.1 mg/l, 1 °C, 3 days): 7.0 cm
- Weight of root (0.1 mg/l, 1 °C, 3 days): 2.8 g
- Area of leaf (0.1 mg/l, 1 °C, 6 days): 11 cm^2
- Height (0.1 mg/l, 1 °C, 6 days): 7.2 cm
- Weight of root (0.1 mg/l, 1 °C, 6 days): 3.0 g
- Area of leaf (0.1 mg/l, 1 °C, 9 days): 12.1 cm^2
- Height (0.1 mg/l, 1 °C, 9 days): 7.3 cm
- Weight of root (0.1 mg/l, 1 °C, 9 days): 3.4 g
- Area of leaf (0.1 mg/l, 1 °C, 12 days): 13.4 cm^2
- Height (0.1 mg/l, 1 °C, 12 days): 7.4 cm
- Number of leaf (0.1 mg/l, 1 °C, 12 days): 3
- Number of tiller (0.1 mg/l, 1 °C, 12 days): 3
- Weight of root (0.1 mg/l, 1 °C, 12 days): 3.6 g
- Area of leaf (0.1 mg/l, 2 °C, 3 days): 10.4 cm^2
- Height (0.1 mg/l, 2 °C, 3 days): 7.1 cm
- Weight of root (0.1 mg/l, 2 °C, 3 days): 2.8 g
- Area of leaf (0.1 mg/l, 2 °C, 6 days): 11.2 cm^2
- Height (0.1 mg/l, 2 °C, 6 days): 7.3 cm
- Weight of root (0.1 mg/l, 2 °C, 6 days): 3.0 g
- Area of leaf (0.1 mg/l, 2 °C, 9 days): 12.6 cm^2
- Height (0.1 mg/l, 2 °C, 9 days): 7.3 cm
- Weight of root (0.1 mg/l, 2 °C, 9 days): 3.1 g
- Area of leaf (0.1 mg/l, 2 °C, 12 days): 13.6 cm^2
- Height (0.1 mg/l, 2 °C, 12 days): 7.4 cm
- Number of leaf (0.1 mg/l, 2 °C, 12 days): 3
- Number of tiller (0.1 mg/l, 2 °C, 12 days): 3
- Weight of root (0.1 mg/l, 2 °C, 12 days): 3.2 g
- Area of leaf (0.1 mg/l, 3 °C, 3 days): 10.5 cm^2
- Height (0.1 mg/l, 3 °C, 3 days): 7.4 cm
- Weight of root (0.1 mg/l, 3 °C, 3 days): 2.5 g
- Area of leaf (0.1 mg/l, 3 °C, 6 days): 12 cm^2
- Height (0.1 mg/l, 3 °C, 6 days): 7.4 cm
- Weight of root (0.1 mg/l, 3 °C, 6 days): 2.7 g
- Area of leaf (0.1 mg/l, 3 °C, 9 days): 12.6 cm^2
- Height (0.1 mg/l, 3 °C, 9 days): 7.8 cm
- Weight of root (0.1 mg/l, 3 °C, 9 days): 2.9 g
- Area of leaf (0.1 mg/l, 3 °C, 12 days): 13.4 cm^2
- Height (0.1 mg/l, 3 °C, 12 days): 7.9 cm
- Number of leaf (0.1 mg/l, 3 °C, 12 days): 3
- Number of tiller (0.1 mg/l, 3 °C, 12 days): 2
- Weight of root (0.1 mg/l, 3 °C, 12 days): 2.9 g
- Area of leaf (0.1 mg/l, 4 °C, 3 days): 10.8 cm^2
- Height (0.1 mg/l, 4 °C, 3 days): 7.5 cm
- Weight of root (0.1 mg/l, 4 °C, 3 days): 2.5 g
- Area of leaf (0.1 mg/l, 4 °C, 6 days): 12.1 cm^2
- Height (0.1 mg/l, 4 °C, 6 days): 7.5 cm
- Weight of root (0.1 mg/l, 4 °C, 6 days): 2.7 g
- Area of leaf (0.1 mg/l, 4 °C, 9 days): 13.4 cm^2
- Height (0.1 mg/l, 4 °C, 9 days): 8 cm
- Weight of root (0.1 mg/l, 4 °C, 9 days): 2.9 g
- Area of leaf (0.1 mg/l, 4 °C, 12 days): 13.8 cm^2
- Height (0.1 mg/l, 4 °C, 12 days): 8.1 cm
- Number of leaf (0.1 mg/l, 4 °C, 12 days): 3
- Number of tiller (0.1 mg/l, 4 °C, 12 days): 2
- Weight of root (0.1 mg/l, 4 °C, 12 days): 3.1 g
- Area of leaf (0.1 mg/l, 5 °C, 3 days): 11 cm^2
- Height (0.1 mg/l, 5 °C, 3 days): 7.5 cm
- Weight of root (0.1 mg/l, 5 °C, 3 days): 2.9 g
- Area of leaf (0.1 mg/l, 5 °C, 6 days): 12.9 cm^2
- Height (0.1 mg/l, 5 °C, 6 days): 7.6 cm
- Weight of root (0.1 mg/l, 5 °C, 6 days): 3.2 g
- Area of leaf (0.1 mg/l, 5 °C, 9 days): 16.8 cm^2
- Height (0.1 mg/l, 5 °C, 9 days): 8.1 cm
- Weight of root (0.1 mg/l, 5 °C, 9 days): 3.5 g
- Area of leaf (0.1 mg/l, 5 °C, 12 days): 19 cm^2
- Height (0.1 mg/l, 5 °C, 12 days): 8.3 cm
- Number of leaf (0.1 mg/l, 5 °C, 12 days): 3
- Number of tiller (0.1 mg/l, 5 °C, 12 days): 2
- Weight of root (0.1 mg/l, 5 °C, 12 days): 4.1 g
- Area of leaf (1 mg/l, 1 °C, 3 days): 10 cm^2
- Height (1 mg/l, 1 °C, 3 days): 7.2 cm
- Weight of root (1 mg/l, 1 °C, 3 days): 2.6 g
- Area of leaf (1 mg/l, 1 °C, 6 days): 11.2 cm^2
- Height (1 mg/l, 1 °C, 6 days): 7.3 cm
- Weight of root (1 mg/l, 1 °C, 6 days): 3.1 g
- Area of leaf (1 mg/l, 1 °C, 9 days): 12.4 cm^2
- Height (1 mg/l, 1 °C, 9 days): 7.3 cm
- Weight of root (1 mg/l, 1 °C, 9 days): 3.2 g
- Area of leaf (1 mg/l, 1 °C, 12 days): 13 cm^2
- Height (1 mg/l, 1 °C, 12 days): 7.9 cm
- Number of leaf (1 mg/l, 1 °C, 12 days): 3
- Number of tiller (1 mg/l, 1 °C, 12 days): 3
- Weight of root (1 mg/l, 1 °C, 12 days): 3.7 g
- Area of leaf (1 mg/l, 2 °C, 3 days): 10.2 cm^2
- Height (1 mg/l, 2 °C, 3 days): 7.2 cm
- Weight of root (1 mg/l, 2 °C, 3 days): 2.6 g
- Area of leaf (1 mg/l, 2 °C, 6 days): 11.7 cm^2
- Height (1 mg/l, 2 °C, 6 days): 7.2 cm
- Weight of root (1 mg/l, 2 °C, 6 days): 3.0 g
- Area of leaf (1 mg/l, 2 °C, 9 days): 12.6 cm^2
- Height (1 mg/l, 2 °C, 9 days): 7.3 cm
- Weight of root (1 mg/l, 2 °C, 9 days): 3.2 g
- Area of leaf (1 mg/l, 2 °C, 12 days): 13 cm^2
- Height (1 mg/l, 2 °C, 12 days): 8 cm
- Number of leaf (1 mg/l, 2 °C, 12 days): 3
- Number of tiller (1 mg/l, 2 °C, 12 days): 3
- Weight of root (1 mg/l, 2 °C, 12 days): 3.7 g
- Area of leaf (1 mg/l, 3 °C, 3 days): 10.4 cm^2
- Height (1 mg/l, 3 °C, 3 days): 7.4 cm
- Weight of root (1 mg/l, 3 °C, 3 days): 2.5 g
- Area of leaf (1 mg/l, 3 °C, 6 days): 12 cm^2
- Height (1 mg/l, 3 °C, 6 days): 7.5 cm
- Weight of root (1 mg/l, 3 °C, 6 days): 2.6 g
- Area of leaf (1 mg/l, 3 °C, 9 days): 12.1 cm^2
- Height (1 mg/l, 3 °C, 9 days): 7.9 cm
- Weight of root (1 mg/l, 3 °C, 9 days): 2.9 g
- Area of leaf (1 mg/l, 3 °C, 12 days): 13.2 cm^2
- Height (1 mg/l, 3 °C, 12 days): 8.1 cm
- Number of leaf (1 mg/l, 3 °C, 12 days): 3
- Number of tiller (1 mg/l, 3 °C, 12 days): 2
- Weight of root (1 mg/l, 3 °C, 12 days): 2.9 g
- Area of leaf (1 mg/l, 4 °C, 3 days): 10.9 cm^2
- Height (1 mg/l, 4 °C, 3 days): 7.4 cm
- Weight of root (1 mg/l, 4 °C, 3 days): 2.5 g
- Area of leaf (1 mg/l, 4 °C, 6 days): 12.6 cm^2
- Height (1 mg/l, 4 °C, 6 days): 7.5 cm
- Weight of root (1 mg/l, 4 °C, 6 days): 2.7 g
- Area of leaf (1 mg/l, 4 °C, 9 days): 13.2 cm^2
- Height (1 mg/l, 4 °C, 9 days): 8.0 cm
- Weight of root (1 mg/l, 4 °C, 9 days): 3.0 g
- Area of leaf (1 mg/l, 4 °C, 12 days): 14 cm^2
- Height (1 mg/l, 4 °C, 12 days): 8.2 cm
- Number of leaf (1 mg/l, 4 °C, 12 days): 3
- Number of tiller (1 mg/l, 4 °C, 12 days): 2
- Weight of root (1 mg/l, 4 °C, 12 days): 3.2 g
- Area of leaf (1 mg/l, 5 °C, 3 days): 11.1 cm^2
- Height (1 mg/l, 5 °C, 3 days): 7.4 cm
- Weight of root (1 mg/l, 5 °C, 3 days): 2.9 g
- Area of leaf (1 mg/l, 5 °C, 6 days): 13.1 cm^2
- Height (1 mg/l, 5 °C, 6 days): 7.7 cm
- Weight of root (1 mg/l, 5 °C, 6 days): 3.5 g
- Area of leaf (1 mg/l, 5 °C, 9 days): 18 cm^2
- Height (1 mg/l, 5 °C, 9 days): 8.2 cm
- Weight of root (1 mg/l, 5 °C, 9 days): 3.7 g
- Area of leaf (1 mg/l, 5 °C, 12 days): 20 cm^2
- Height (1 mg/l, 5 °C, 12 days): 8.4 cm
- Number of leaf (1 mg/l, 5 °C, 12 days): 3
- Number of tiller (1 mg/l, 5 °C, 12 days): 2
- Weight of root (1 mg/l, 5 °C, 12 days): 4.5 g
